Format in all cases: biochemical
Experiment [1] in a line: Melanin oxidation assay (peroxynitrite/melanin chemiluminescence quenching). The note with it: peroxynitrite, melanin and DBAS in DMSO; measured at 150 seconds and 500 seconds. The source says:
An easy and fast assay was developed to measure quenching of chemiluminescence from the triplet carbonyl of a cleaved dioxetane that was created when peroxynitrite (ONOO—) reacted with melanin. As such, it measured both triplet quenching and any scavenging activity that prevented the chemiexcitation reaction from starting. DMSO was used as a solvent for the entire reaction, DBAS to enhance the luminescence and a liquid scintillation counter set to single-photon mode to detect the luminescence signal.
In this assay, peroxynitrite, melanin, and DBAS were incubated in DMSO in the absence or presence of test agents, and light emission quenching (%) was measured at 150 seconds and 500 seconds (FIG. 1).

Experiment [2] is described as follows: Superoxide radical absorbance capacity (SORAC) test, WST-1 probe. The note with it: activity grade 0-4. Here is the method:
Superoxide radical absorbance capacity tests were conducted to measure the capacity of an antioxidant material to dismutate superoxide anion. The Varioskan Flush was employed to measure the superoxide dismutase-catalyzed dismutation of the superoxide anion in the presence of the absorbance probe, water-soluble tetrazolium salt (WST-1). The superoxide radical antioxidant (SORAC) assay is based on an inhibition assay and is suitable for evaluating superoxide dismutase or superoxide dismutase-like activities in samples.

A short description of experiment [3]: Peroxynitrite radical absorbance capacity test, dihydrorhodamine 123 indicator. Particulars: activity grade 0-4. The protocol: Peroxynitrite radical absorbance capacity tests were conducted to measure the capacity of an antioxidant material to quench peroxynitrite. Dihydrorhodamine 123 was used as an indicator of peroxynitrite in tubo for peroxynitrite radical absorbance capacity tests with Varioskan Flush. […]

The record followed here is US20230310534A1, “QUENCHERS THAT SLOW, DECREASE, OR INHIBIT THE FORMATION OF CHEMIEXCITATION-INDUCED CYCLOBUTANE PYRIMIDINE DIMERS” (L'OREAL, priority 2017, published 2023).

For the compound `O=c1oc2c(O)c(O)cc3c(=O)oc4c(O)c(O)cc1c4c23` [Ellagic acid], in experiment [1], the “light emission quenching (hit)” value was “showed a quenching effect”. Moreover, in experiment [2], the Anti-superoxide is on record as 2. The same compound had an Anti-peroxynitrite in experiment [3] of 4.

On to `O=C(O[C@@H]1Cc2c(O)cc(O)cc2O[C@@H]1c1cc(O)c(O)c(O)c1)c1cc(O)c(O)c(O)c1` [Epigallocatechin Gallate], for which the “light emission quenching (hit)” value in experiment [1] is on record as “showed a quenching effect”. Moreover, in experiment [2], the Anti-superoxide amounted to 4. In addition, the Anti-peroxynitrite in experiment [3] was found to be 4.

With `COc1cc(/C=C/C(=O)O)ccc1O` [Ferulic Acid], the “light emission quenching (hit)” value in experiment [1] is “showed a quenching effect”. In experiment [2], this compound displayed an Anti-superoxide of 1. In experiment [3], this compound gave an Anti-peroxynitrite of 4.

On to `CC1=C(/C=C/C(C)=C/C=C/C(C)=C/C=C/C=C(C)/C=C/C=C(C)/C=C/C2=C(C)CCCC2(C)C)C(C)(C)CCC1` [beta-carotene], for which the “light emission quenching (hit)” value in experiment [1] was “showed a quenching effect”.

As to `O=C(O)c1cccc(C(=O)O)n1` [dipicolinic acid], the “light emission quenching (hit)” value in experiment [1] is “showed a quenching effect”.

As for `C/C=C/C=C/C(=O)O` [sorbic acid], the “light emission quenching (hit)” value in experiment [1] is on record as “showed a quenching effect”.

Consider `CC(C)=CCC/C(C)=C/CC/C(C)=C/CC/C=C(\C)CC/C=C(\C)CCC=C(C)C` [squalene], for which the “light emission quenching (hit)” value in experiment [1] is reported as “showed a quenching effect”.
